Earlier results on two compounds are cited in US20140271892A1, “PHENYLEPHRINE RESINATE PARTICLES HAVING GOOD AUC” (McNeil-PPC, Inc., priority 2013, published 2014).

The conditions of data set [1]: therapeutic dose.
For data set [2] the following is noted: 30 mg dose administered orally over eight hours.

Consider `CC(=O)Nc1ccc(O)cc1` [acetaminophen, Acetaminophen], for which the “excreted unchanged in the urine” value in data set [1] is reported as “Less than 9 % of a therapeutic dose”.

As to `CNC[C@H](O)c1cccc(O)c1` [phenylephrine, (R)-1-(3-hydroxyphenyl)-2-methylaminoethanol], in data set [2], the metabolized to m-hydroxy-phenylglycol-sulfate was 6 % of the dose, the “metabolized to m-hydroxymandelic acid” value is given as 30 % of the dose, the metabolized to phenylephrine-glucuronide is 12 % of the dose and the metabolized to phenylephrine-sulfate is 47 % of the dose.
